Values of other authors as cited in US20240287015A1, “Method for Producing an Ionizable Lipid” (NanoVation Therapeutics Inc., priority 2021, published 2024).

Settings: siRNA LNP formulations; MC3 relative to similar KC2-based formulations

CCCCC/C=C\C/C=C\CCCCCCCCC(CCCCCCCC/C=C\C/C=C\CCCCC)OC(=O)CCCN(C)C [MC3, (6Z,9Z,28Z,31Z)-heptatriacont-6,9,28,31-tetraene-19-yl 4-(dimethylamino)butanoate]
times less siRNA required than KC2 to attain the same end result: about 3 times
